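Grown in 96-well plates, cells were treated for 48 hours with each compound at five concentrations. Insufficient inhibition: endpoint recorded as highest concentration tested. TGI: concentration producing complete growth inhibition.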
Legend:
Test in all cases: growth of human tumour cells (NCI), 48 h
HT29 colon = system: HT29 colon
IGROV1 ovarian = system: IGROV1 ovarian
MALME-3M melanoma = system: MALME-3M melanoma
MDA-N = system: MDA-N
NCI-H226 lung = system: NCI-H226 lung
NCI-H522 lung = system: NCI-H522 lung
NCI/ADR-RES ovarian = system: NCI/ADR-RES ovarian
OVCAR-3 ovarian = system: OVCAR-3 ovarian
OVCAR-8 ovarian = system: OVCAR-8 ovarian
SF-295 CNS = system: SF-295 CNS
SK-MEL-2 melanoma = system: SK-MEL-2 melanoma
U251 CNS = system: U251 CNS
SR leukemia = system: SR leukemia

SMILES | TGI (HT29 colon) [µM] | TGI (IGROV1 ovarian) [µM] | TGI (MALME-3M melanoma) [µM] | TGI (MDA-N) [µM] | TGI (NCI-H226 lung) [µM] | TGI (NCI-H522 lung) [µM] | TGI (NCI/ADR-RES ovarian) [µM] | TGI (OVCAR-3 ovarian) [µM] | TGI (OVCAR-8 ovarian) [µM] | TGI (SF-295 CNS) [µM] | TGI (SK-MEL-2 melanoma) [µM] | TGI (U251 CNS) [µM] | TGI (SR leukemia) [µM]
COCCN(CCNC(=O)c1cccc2c(N)c3cccc(C)c3nc12)CCOC | 10.2 | 7.25 | 1.96 | 2.75 | 6.15 | 0.894 | 33.7 | 15.2 | 19 | > 22.9 | 18.7 | > 63.6 | 
CC1(c2sccc2Cl)CC(c2sccc2Cl)=C(C#N)C(=C(C#N)C#N)N1 (stereo unspecified) | 54.6 | 42.4 | 32.8 | 35 |  | 35.8 | 57.8 | 29.8 | 39 | 35.2 | 39.3 | 33.8 | 
CC(=O)OC(CC1(C)C(C)CCC23COC(=O)C2=CCCC31)c1ccoc1 (stereo unspecified) | > 100 |  | 55.2 |  | 44.1 | 35.6 |  | 46.1 | 54.2 | > 100 | 49.7 | 29.3 | 
CCOC(=O)C1SC(=Nc2ccc(OC)c(OC)c2)N=C1C (stereo unspecified) | 34.8 | > 100 | 83.4 |  | > 100 | 32.3 |  | 86.7 | > 100 | > 100 | > 100 | > 100 | 
CCOC(=O)CC1COc2ccc3c(c21)OCO3 (stereo unspecified) | > 100 | > 100 | > 100 |  | > 100 |  |  | > 100 | > 100 | > 100 | > 100 | > 100 | > 100
NNC(=O)CC(=O)Nc1cccc(Cl)c1 | > 100 | > 100 | > 100 | > 100 | > 100 | > 100 |  | > 100 | > 100 | > 100 | > 100 | > 100 | > 100
CCOC(=O)CC(c1ccccc1)C(C)(C(=O)OCC)C(=O)OCC (stereo unspecified) | > 100 | > 100 | > 100 |  | > 100 | > 100 | > 100 |  | > 100 | > 100 | > 100 | > 100 | > 100
O=C(O)/C(Cl)=C(\Cl)C(=O)c1ccccc1 | > 100 | > 100 | > 100 |  | > 100 | > 100 |  | > 100 | > 100 | > 100 | > 100 | > 100 | > 100
C=CC(O)(CBr)CCC(Br)C(=C)C (stereo unspecified) | > 10 | > 10 | > 10 | > 10 | > 10 | > 10 | > 10 | > 10 | > 10 | > 10 | > 10 | > 10 | 
O=C(Nc1ccc(Cl)cc1C(F)(F)F)C(=O)C1CCCS1(=O)=O (stereo unspecified) | > 100 | > 10 | > 100 |  | > 100 |  |  | > 100 | > 100 | > 100 |  | > 100 | > 100
CCOC(=O)C(NC(=O)c1ccccc1)(Nc1ccc(S(=O)(=O)Nc2ncccn2)cc1)C(F)(F)F (stereo unspecified) | > 100 | > 100 | > 100 | > 100 | > 100 |  | > 100 | > 100 | > 100 | > 100 | > 100 | > 100 | > 100
CCOC(=O)c1nc2ccc(C(F)(F)F)cc2nc1Nc1cc(OC)c(OC)c(OC)c1 | > 100 | > 100 | > 100 | > 100 |  | > 100 | > 100 | > 100 | > 100 | > 100 |  |  | > 100
COc1cc(C)c(/C=C2/N=C(c3ccccc3)OC2=O)c([N+](=O)[O-])c1OC | > 100 | > 100 | > 100 | > 100 | > 100 | > 100 | > 100 | > 100 | > 100 | > 100 | > 100 | > 100 | 
Nc1ccc2[nH]c(-c3cccc(C(F)(F)F)c3)cc(=O)c2c1 | > 100 | > 100 | > 100 |  |  | > 100 | > 100 |  | > 100 |  |  | > 100 | 97.8
N#CCc1c(-c2ccccc2)n(S(=O)(=O)c2ccccc2)c2ccccc12 | > 100 | > 100 | > 100 |  | > 100 |  |  | > 100 | > 100 | > 100 | > 100 | > 100 | > 100
CC(C)C(=O)N1Cc2cc(Cl)cc(Cl)c2OC(=O)c2ccccc21 | > 100 | 81 | 49.3 |  | 58.7 | 40.9 |  | 60.8 | > 100 | > 100 | 50 |  | 
CCOC(=O)Cn1c2ccccc2c(=O)c2cc(C)c(C)c(C#N)c21 | > 100 | > 100 | > 100 |  | > 100 |  |  | > 100 | > 100 | > 100 | > 100 | > 100 | > 100
COC(=O)C1CCC(=O)N1C(c1cc(OC)c(OC)c(OC)c1)c1cc(OC)c(OC)c(OC)c1 (stereo unspecified) | > 100 | > 100 |  | > 100 |  | > 100 |  | > 100 | > 100 | > 100 | > 100 | > 100 | > 100
S=C1NC2=C(COc3ccccc32)C(c2ccc(Cl)cc2)N1 (stereo unspecified) | 31.7 | 31.6 |  | 29.9 | 36 |  | 41.3 | 28.7 | 41.7 | 29 | 29 |  | 
NC(N)=NS(=O)(=O)c1ccc(N/N=C2/CCOC2=O)cc1 | > 100 | > 100 | > 100 | > 100 | > 100 |  | > 100 | > 100 | > 100 | > 100 | > 100 | > 100 | > 100
CCCCCCCCCCCCOP(=O)(O)OP(=O)(O)OCC1OC(n2ccc(N)nc2=O)CC1O (stereo unspecified) | > 100 | > 100 | > 100 | > 100 | > 100 | > 100 | > 100 | > 100 | > 100 | > 100 | > 100 | > 100 | 

Reference: PubChem BioAssay (NCI)
